According to the OligoGym collection:
Where “and” joins values, the source holds several entries; their conditions need not be identical. Equal values may be shown once. After the bases stand the sugars from the 5' end (letter, count) and the backbone: PS all phosphorothioate, else s phosphorothioate and o phosphodiester by linkage. Methylation of C is not given here. e = 2'-O-(2-methoxyethyl) (MOE); k = constrained ethyl (cEt); d = 2'-deoxy (DNA); m = 2'-O-methyl

Biological target: HSD17B13
Conditions: ASO, HepaRG

| Sequence | target mRNA inhibition (1 µM) | also measured |
| --- | --- | --- |
| AGCGAATGTTAAAACT (sugars k3 d10 k3, PS) | 16% |  |
| AGATTTACTTCCTTGT (sugars k3 d10 k3, PS) | 41% |  |
| TGATGGTGATCAGAAG (sugars k3 d10 k3, PS) | 0% |  |
| GATGCTCCATAATAAT (sugars k3 d9 k3 e1, PS) | 15% |  |
| GCTTTTGTCCACCTTT (sugars kkdddddddddkekek, PS) | 75% | target mRNA inhibition (0.02 µM): 28%; target mRNA inhibition (0.078 µM): 25%; target mRNA inhibition (0.313 µM): 45%; target mRNA inhibition (1.25 µM): 81%; target mRNA inhibition (5 µM): 87% |
| ATTAAGCAGAATTGTG (sugars k3 d10 k3, PS) | 8% |  |
| ACTTCTTACGACTTCA (sugars k3 d10 k3, PS) | 43% |  |
| AATCCCAACCAAACTT (sugars k3 d10 k3, PS) | 23% |  |
| ATACATTAGCAAGCTA (sugars k3 d9 k3 e1, PS) | 48% |  |
| TTCTGATGTCAGACCT (sugars k3 d10 k3, PS) | 42% |  |
| GTTCAACTGAACCTCT (sugars k3 d10 k3, PS) | 55% |  |
| GAAGTGATCCATATTC (sugars k3 d10 k3, PS) | 44% |  |
| CCAAGGCCTGAAGTTC (sugars k3 d10 k3, PS) | 20% |  |
| CAATCCCAACCAAACT (sugars k3 d10 k3, PS) | 49% |  |
| GTAAGTATTCCATCTA (sugars k3 d10 k3, PS) | 45% |  |
| GAACAGTCTTAAACCT (sugars k3 d1 m1 d8 k3, PS) | 75% | target mRNA inhibition (0.02 µM): 0%; target mRNA inhibition (0.078 µM): 24%; target mRNA inhibition (0.313 µM): 53%; target mRNA inhibition (1.25 µM): 66%; target mRNA inhibition (5 µM): 69% |
| CTATAGTAATCACAAG (sugars k3 d10 k3, PS) | 35% |  |
| ATTTATTGGTATGGTA (sugars k3 d10 k3, PS) | 46% |  |
| TACTTGAACAGTCTTA (sugars k3 d9 k3 e1, PS) | 65% |  |
| AGTGCATCTTAAGATA (sugars kkdddddddddkekek, PS) | 27% |  |
| CTCAAATGAGGCGGCA (sugars k3 d10 k3, PS) | 56% |  |
| ACCAAACTTGCCCATA (sugars k3 d10 k3, PS) | 46% |  |
| CTAGTGCCAAACCAAT (sugars kkdddddddddkekek, PS) | 47% |  |
| CACTCAGCTGCAGTTT (sugars k3 d10 k3, PS) | 13% |  |

| Sequence | target mRNA inhibition (1 µM) | also measured |
| --- | --- | --- |
| TCTAAACATCTCTGGG (sugars k3 d1 m1 d8 k3, PS) | 36% |  |
| TCCATCTATCAGACTT (sugars k3 d10 k3, PS) | 42% |  |
| CCTAGGATGTTGACCT (sugars k3 d10 k3, PS) | 3% |  |
| AGTAATTGCTATAGTA (sugars k3 d10 k3, PS) | 48% |  |
| TAGCUTTTGTCCACCT (sugars k3 d1 m1 d8 k3, PS) | 67% and 50% | target mRNA inhibition (0.02 µM): 8%; target mRNA inhibition (0.078 µM): 9%; target mRNA inhibition (0.313 µM): 26%; target mRNA inhibition (1.25 µM): 54%; target mRNA inhibition (5 µM): 78% |
| CCAATATGGGATGAGG (sugars k3 d10 k3, PS) | 60% |  |
| ACCAACTATGTAATAG (sugars k3 d10 k3, PS) | 47% |  |
| TTAAGCATTGTTAGCT (sugars k3 d10 k3, PS) | 16% |  |
| CCTAAACAAACACTAT (sugars k3 d10 k3, PS) | 8% |  |
| GTCTAAACATCTCTGG (sugars kkdddddddddkekek, PS) | 50% |  |
| ACAATATGGGATGAGG (sugars k3 d9 k3 e1, PS) | 76% | target mRNA inhibition (0.02 µM): 0%; target mRNA inhibition (0.078 µM): 0%; target mRNA inhibition (0.313 µM): 0%; target mRNA inhibition (1.25 µM): 39%; target mRNA inhibition (5 µM): 55% |
| CTTTAGTCAACAGTAC (sugars k3 d10 k3, PS) | 12% |  |
| ATGTAATAGCCAGTAC (sugars k3 d10 k3, PS) | 52% |  |
| AAACCTTCCCTGTGTA (sugars k3 d10 k3, PS) | 34% |  |
| TTATGTGATTGAGTTC (sugars k3 d1 m1 d8 k3, PS) | 35% |  |
| GAATAGCAAGCCAACA (sugars k3 d9 k3 e1, PS) | 30% |  |
| GCCCTAGATTCTACAC (sugars k3 d10 k3, PS) | 15% |  |
| AATTCACCTTGACTAA (sugars k3 d9 k3 e1, PS) | 16% |  |
| TGAATAGCAAGCCAAC (sugars k3 d10 k3, PS) | 4% |  |
| TGAGGTAAGGAATCCC (sugars k3 d10 k3, PS) | 2% |  |
| GACTGTTGAGCTCAAA (sugars k3 d10 k3, PS) | 52% |  |
| CCATGGATCTAGAACA (sugars k3 d10 k3, PS) | 15% |  |
| CATGAAGATTAGTTAA (sugars k3 d10 k3, PS) | 11% |  |
| CGATAGATCTCTTCTC (sugars k3 d10 k3, PS) | 15% |  |

| Sequence | target mRNA inhibition (1 µM) | also measured |
| --- | --- | --- |
| TATCATACCACATACC (sugars k3 d10 k3, PS) | 24% |  |
| GTTTTTAAGAGGCATG (sugars k3 d10 k3, PS) | 63% |  |
| AGAACCAGGACTCTCC (sugars k3 d10 k3, PS) | 67% |  |
| GAGGATAGTGAACATA (sugars k3 d10 k3, PS) | 50% |  |
| ATGGCTACAGATTGGA (sugars k3 d1 m1 d8 k3, PS) | 44% |  |
| AATAGAGTCGGTCACC (sugars k3 d1 m1 d8 k3, PS) | 57% |  |
| TCGGCTGGATATACTG (sugars k3 d10 k3, PS) | 23% |  |
| AATACATATCTTACTC (sugars k3 d10 k3, PS) | 37% |  |
| CATACCCATTCTAACT (sugars k3 d10 k3, PS) | 6% |  |
| AGTTGCACCGTTTTGG (sugars k3 d1 m1 d8 k3, PS) | 38% |  |
| GACGATGTGGCCATGA (sugars k3 d10 k3, PS) | 42% |  |
| GTAATATTCATAGTTC (sugars k3 d10 k3, PS) | 49% |  |
| TAGAGTCGGTCACCTT (sugars k3 d10 k3, PS) | 65% |  |
| TCTTATTGGTAAGTAT (sugars k3 d10 k3, PS) | 25% |  |
| ACATATGGTGTACACT (sugars k3 d10 k3, PS) | 19% |  |
| TCCATAATAATAGCTC (sugars kkdddddddddkekek, PS) | 41% |  |
| AGAGUTGCACCGTTTT (sugars k3 d1 m1 d8 k3, PS) | 68% |  |
| TTGAACAGTCTTAAAC (sugars k3 d1 m1 d8 k3, PS) | 11% |  |
| ACTGCTGCTAGTGCCA (sugars k3 d9 k3 e1, PS) | 57% |  |
| TCCATTGAATCTTCAA (sugars k3 d10 k3, PS) | 57% |  |
| TCAACCTGCACACCAT (sugars k3 d10 k3, PS) | 72% | target mRNA inhibition (0.02 µM): 14%; target mRNA inhibition (0.078 µM): 32%; target mRNA inhibition (0.313 µM): 47%; target mRNA inhibition (1.25 µM): 71%; target mRNA inhibition (5 µM): 84% |
| CTTAGTACCAAGACAC (sugars k3 d10 k3, PS) | 60% |  |
| TGGAATGCTACTTGAA (sugars k3 d1 m1 d8 k3, PS) | 79% | target mRNA inhibition (0.02 µM): 13%; target mRNA inhibition (0.078 µM): 27%; target mRNA inhibition (0.313 µM): 35%; target mRNA inhibition (1.25 µM): 66%; target mRNA inhibition (5 µM): 91% |
| CATAATAATAGCTCTA (sugars k3 d10 k3, PS) | 41% |  |

| Sequence | target mRNA inhibition (1 µM) | also measured |
| --- | --- | --- |
| AGGTTTTGATACCAGT (sugars k3 d10 k3, PS) | 60% |  |
| TTGACTGCTGCTAGTG (sugars k3 d1 m1 d8 k3, PS) | 40% |  |
| TAGCAATTTAGCAAGA (sugars k3 d10 k3, PS) | 54% |  |
| CCCAAAAATGTCCTAG (sugars k3 d10 k3, PS) | 18% |  |
| GTTTGACTGCTGCTAG (sugars k3 d10 k3, PS) | 58% |  |
| GTCGGTCACCTTTCAT (sugars k3 d10 k3, PS) | 85% | target mRNA inhibition (0.02 µM): 16%; target mRNA inhibition (0.078 µM): 37%; target mRNA inhibition (0.313 µM): 57%; target mRNA inhibition (1.25 µM): 82%; target mRNA inhibition (5 µM): 90% |
| CTGTAATTGGCTCTTG (sugars k3 d10 k3, PS) | 28% |  |
| GAGACATGAGGTTTTG (sugars k3 d1 m1 d8 k3, PS) | 61% |  |
| TTAGTATAGTTATCTT (sugars k3 d9 k3 e1, PS) | 45% |  |
| CCTTACTAAGGAAATT (sugars k3 d10 k3, PS) | 28% |  |
| TTCAGTTAGCAGCTAA (sugars k3 d10 k3, PS) | 72% | target mRNA inhibition (0.02 µM): 0%; target mRNA inhibition (0.078 µM): 0%; target mRNA inhibition (0.313 µM): 26%; target mRNA inhibition (1.25 µM): 63%; target mRNA inhibition (5 µM): 82% |
| TATGAGTAAAGATCTA (sugars k3 d10 k3, PS) | 10% |  |
| GCATCTTAAGATACCC (sugars k3 d10 k3, PS) | 82% | target mRNA inhibition (0.02 µM): 16%; target mRNA inhibition (0.078 µM): 45%; target mRNA inhibition (0.313 µM): 82%; target mRNA inhibition (1.25 µM): 89%; target mRNA inhibition (5 µM): 97% |
| CTGTGCACTCATTCTG (sugars k3 d10 k3, PS) | 51% |  |
| TAGGAAGTGATCCATA (sugars k3 d10 k3, PS) | 30% |  |
| AGGGAATTTATCAAAC (sugars k3 d10 k3, PS) | 47% |  |
| AATAGCCATGTAGCTA (sugars k3 d10 k3, PS) | 28% |  |
| TCAAATGAGGCGGCAC (sugars k3 d10 k3, PS) | 46% |  |
| GCCAACAGCGGCAAAT (sugars k3 d10 k3, PS) | 30% |  |
| TTATGTAATAGCCAGT (sugars kkdddddddddkekek, PS) | 63% |  |
| GTTTCCTCCACACCGC (sugars k3 d10 k3, PS) | 45% |  |
